Where “and” joins values, the source holds several entries; their conditions need not be identical. Identical values can stand only once. Entries after “also recorded” stand apart in the source; their conditions may differ. Like-named read-outs stand apart in the source and are kept apart here. No end group written: not given here.
What was measured:
[1] = tested on: C. albicans AzS; test: C. elegans killing assay, C. albicans paired clinical isolate before fluconazole resistance (Az^S); assay type: in vivo, Candida albicans
[2] = tested on: C. albicans AzR; assay type: in vivo, Candida albicans; settings: C. albicans AzR infected C. elegans, peptides 1 nM, fluconazole 4 ug/ml, Fig 4D
[3] = Solubility of peptides (biophysical characteristics); assay type: physicochemical
Source text: Supplement 41467_2022_33613_MOESM1_ESM.docx, table 2: Supplementary Table 2. Biophysical characteristics of peptides. | column: Solubility

[4] = tested on: C. albicans; test: C. elegans killing assay, C. albicans infection; settings: 1 nM peptide; for Median survival: C. albicans infected C. elegans
Protocol: C. elegans glp-4(bn2); sek-1(km-4)[48] nematodes were propagated and maintained on E. coli strain OP50[50] that was seeded onto nematode growth medium (NGM) agar using standard techniques (Hope, 1999). To synchronize the animals, L1 stage worms on non-starved plates were washed off, filtered through a 10 μm filter (pluriSelect, pluriStrainer 10 μm), harvested by centrifugation at 750 xg for 30 seconds, transferred to OP50 seeded plates, and grown to the L4 stage. To prepare the infection plates, Fungal strains were grown in YPD broth for 24 h at 37 °C with agitation. 500 μl of the culture was plated onto BHI solid medium containing gentamycin (10 μg/ml) and grown for 24 h at 37 °C. The synchronized, L4 C. elegans were washed off the OP50 plates in 2 ml sterile M9 buffer and washed once, centrifuging at 750 xg for 30 seconds to collect animals. Animals were infected by placing them on the fungal lawn for 4 h at 25 °C. Following this exposure, they were washed off the plate and washed four times with 2 ml of sterile M9. The nematodes were then pipetted (~30 per well with two wells per condition for a total of ~60 worms assayed) into six-well plates with 2 ml of liquid medium (20% BHI broth and 80% M9) containing the indicated concentrations of test compounds. Plates were incubated at 25 °C, and worm death was scored daily. Kaplan–Meier survival curves were generated and analyzed as described in the quantification and statistical analysis section.

[5] = tested on: C. neoformans strain 40-71; test: C. elegans killing assay, C. neoformans infection; assay type: in vivo, Cryptococcus neoformans; settings: 1 nM peptide
[6] = tested on: C. albicans; test: C. albicans adhesion assay (polystyrene plates, crystal violet); assay type: cell-based, Candida albicans; settings: for Adjusted avg / Avg Percent: Fig 3B, 10 nM, mean of 6 technical replicates; for Adjusted avg: background subtracted; for Avg Percent: relative adherence vs DMSO
Protocol: Similar to the methodology in[51], C. albicans strains were grown in YPD broth for 18 h at 30 °C with agitation and then subcultured for 4 h in the same conditions. […] The cell suspension was incubated for 1 h at 30 °C with agitation. Then 100 µl of the cell suspension was added to wells of a 96 well tissue culture treated polystyrene plate (Falcon) in addition to 100 µl of artificial saliva media[14],[52] containing the indicated concentrations of test compounds. The plate was then incubated at 37 °C for 90 min.
The adhered cell layer was then stained for 20 min with 40 µl of 0.08% crystal violet solution (diluted, Sigma). The crystal violet stain was removed, and the wells were then washed three times with sterile water. Adhered cells were then destained with 200 µl of 200 proof ethanol for 20 min, and 100 µl of the ethanol solution was transferred to a new well for analysis. The optical density at 595 nm (OD595) was measured using a Synergy H1 plate reader (BioTek) with Gen5 version 3.08 software (BioTek).

[7] = tested on: RBCs; test: Hemolysis assay; assay type: cell-based, human; settings: for fractional hemolysis (Toxicity): Extended Fig 6A
Protocol: De-identified and pooled RBCs were purchased from Rockland Immunochemicals, Inc. RBCs were prepared at 6 × 10^7 cells/mL in PBS. To 25 μL of peptide diluted appropriately to result in a final concentration of 1 nM and 1 µM, 125 μL of RBC suspension was added. The plates were gently rocked for 1 h at room temperature. The cells were then removed from suspension by centrifugation at 1000 xg for 5 min. From the experimental plate, 100 μL of the supernatant was carefully withdrawn from each well and added to a new 96-well plate. The absorbance of the solutions in each well was measured at 410 nm and each well was compared to a no-treatment control and a 100% lysis control (1% SDS).

[8] = Peptide serum stability assay; assay type: in vitro ADME, human
Protocol: One mL of RPMI supplemented with 10% (v/v) of human serum (type AB) were aliquoted and temperature-equilibrated at 37 °C for 15 min before adding a concentrated stock peptide solution resulting in a final peptide concentration of 100 µM. For each time point, 100 µL of the reaction solution was removed and added to 200 µL 96% ethanol for precipitation of serum proteins. The sample was cooled (4 °C) for 15 min and then spun at 18,000 g for 2 min to pellet the precipitated serum proteins. The reaction supernatant was analyzed using HPLC with absorbance detected at 280 nm. The peptide peak was detected first without serum treatment to assess the area under the curve for the peptide of interest. At each time point the area under the curve was calculated by HPLC and then divided by the untreated peptide area under the curve to determine the percent remaining.

[9] = tested on: C. albicans; test: Mouse OPC model, fungal burden in tongue by qPCR; assay type: in vivo
[10] = tested on: C. albicans; test: Mouse OPC model, epithelial (hyphal) invasion by histology; assay type: in vivo
[11] = tested on: C. albicans; test: Intravenous infection model (disseminated candidiasis); assay type: in vivo, mouse; settings: C. albicans pre-incubated with 100 nM peptide for two hours, IV injection, day 22
[12] = tested on: C. albicans; test: Rat venous catheter model; assay type: in vivo; settings: rat jugular vein catheter, 20 nM, 24 h, n of three
Protocol: To quantitate fungal burden after 24 h, the catheter was removed, and 1 cm of the tip placed in a one milliliter of sterile 0.9% NaCl followed by vortexing. A 1:10 serial dilution of this wash fluid was plated on SDA and colonies counted after 24 h of growth at 35 °C. […] Serial ethanol washes and critical point drying were used to dry the segments before they were mounted, and palladium-gold coated.

[13] = tested on: C. albicans; test: C. albicans CFUs before and after two-hour pre-incubation with peptide; settings: 100 nM, two-hour incubation in PBS
Protocol: To increase the chances of observing an effect, we pre-incubated C. albicans with 100 nM of EntV or the 12mer for two hours prior to intravenous (IV) injection of 1 ×10^5 CFU.
The disseminated candidiasis model[59],[60] was performed by growing C. albicans SC5314 overnight in YPD at 30 °C, then diluting 1/100 and growing in a second overnight. The late-log phase culture was collected by centrifugation at 16,000 xg for 30 s, washed in PBS, and diluted to 5 × 10^6 cells/ml in PBS containing vehicle (0.01% DMSO) or 100 nM EntV or the 12mer peptide and incubated for 2 h at room temperature. Female ICR mice 6 wks, 18–20 g, 10/experimental group were inoculated via the lateral tail vein with 0.1 ml. Animals were monitored at least twice daily for 21 days for signs of moribundity.

[14] = 10 nM and 1 nM in drinking water

OC(Cn1cncn1)(Cn1cncn1)c1ccc(F)cc1F [Flu, fluconazole, reference compound]
Median survival ([1]; in vivo): 11 days and 10 days
Median survival ([2]; trial 1): 8 days
Median survival ([2]; trial 2): 6 days

TNAAAAQQGGIICLLVVWLS [α7-disrupted]
Solubility [3]: 10 µM +
Median survival ([4]; Fig 2C, trial 1): 6 days
Median survival ([4]; Fig 2C, trial 2): 6 days

TNVGALWICGLAVIQAAQLS [α7-random]
Solubility [3]: 10 µM +
Median survival ([4]; Fig 2C, trial 1): 7 days
Median survival ([4]; Fig 2C, trial 2): 7 days

VAGQLALWAVQC [12aa]
Protection of C. elegans infected with C. neoformans (in words) [5]: protected C. neoformans infected worms from killing
Median survival ([1]; C. albicans AzS infected C. elegans, peptides 1 nM, fluconazole 4 ug/ml, Fig 4C, trial 1): 12 days
Median survival ([1]; C. albicans AzS infected C. elegans, peptides 1 nM, fluconazole 4 ug/ml, Fig 4C, trial 2): 10.5 days
Median survival ([2]; trial 1): 10 days
Median survival ([2]; trial 2): 11 days
Inhibition of C. albicans adhesion to polystyrene (in words) ([6]; 1 h with peptide in PBS, then artificial saliva media 90 min, crystal violet): as effective in protecting against C. albicans infection in the worm model and inhibiting surface adhesion as full-length EntV
Adjusted avg ([6]; biological replicate 1): 0.262
Avg Percent ([6]; biological replicate 1): 40.07%
Adjusted avg ([6]; biological replicate 2): 0.408
Avg Percent ([6]; biological replicate 2): 48.28%
Adjusted avg ([6]; biological replicate 3): 0.161
Avg Percent ([6]; biological replicate 3): 13.25%
Adjusted avg ([6]; biological replicate 4): 0.232
Avg Percent ([6]; biological replicate 4): 27.81%
Lysis of red blood cells (in words) ([7]; 1 nM and 1 µM peptide, 6 x 10^7 RBC cells/mL in PBS, 1 h room temperature, absorbance 410 nm, n of 6, listed as 12mer): no lysis of red blood cells; also recorded: no toxicity
fractional hemolysis (Toxicity) ([7]; 1nM, replicate 1): 0.01086
fractional hemolysis (Toxicity) ([7]; 1nM, replicate 2): 0.03086
fractional hemolysis (Toxicity) ([7]; 1nM, replicate 3): 0.01386
fractional hemolysis (Toxicity) ([7]; 1nM, replicate 4): 0.05786
fractional hemolysis (Toxicity) ([7]; 1uM, replicate 1): 0.04886
fractional hemolysis (Toxicity) ([7]; 1uM, replicate 2): 0.05786
fractional hemolysis (Toxicity) ([7]; 1uM, replicate 3): 0.03286
fractional hemolysis (Toxicity) ([7]; 1uM, replicate 4): 0.08286
stability in the presence of 10% human serum ([8]; 10% human serum, 0 Hrs, fraction relative to 0 Hrs, mean (SD) of n = 3): 1.0 (0.0)
remaining at 2 h ([8]; 10% human serum, 2 Hrs, fraction relative to 0 Hrs, mean (SD) of n = 3, read-out: stability in the presence of 10% human serum): 44.3%
remaining at 4 h ([8]; 10% human serum, 4 Hrs, fraction relative to 0 Hrs, mean (SD) of n = 3, read-out: stability in the presence of 10% human serum): 39.3%
remaining at 24 h ([8]; 10% human serum, 24 Hrs, fraction relative to 0 Hrs, mean (SD) of n = 3, read-out: stability in the presence of 10% human serum): 12.4%
Peptide detectable (percent remaining) in serum ([8]; RPMI with 10% (v/v) human serum (type AB), 37 °C, 100 µM peptide, 24-hour incubation, HPLC 280 nm, mean of n of 3): about 10%
Stability in serum (in words) ([8]; RPMI with 10% (v/v) human serum (type AB), 37 °C, 100 µM peptide, HPLC 280 nm, n of 3): not particularly stable in serum
Fungal burden on the tongue (in words) [9, 14]: only a slight reduction in fungal burden on the tongue
Fungal burden in the tongue (in words) ([9]; 50 nM in drinking water, day 5): loss of efficacy in terms of fungal burden
Fungal burden in the tongue, established infection (in words) ([9]; 100 nM in drinking water starting at day three, sacrificed on day five): significantly less fungal burden compared to both groups of untreated animals
Fungal burden in the tongue, C. albicans DNA by qPCR (in words) ([9]; corticosteroid-suppressed mice, 100 nM in drinking water from inoculation, day 5, listed as 12mer): equally effective; also recorded: even more effective at reducing fungal burden than 4 µg/mL fluconazole
Invasion of the tongue epithelium (in words) [10, 14]: the reduction in invasion remained dramatic
Hyphal invasion of the tongue (in words) ([10]; 50 nM in drinking water, day 5): significant lowering of hyphal invasion
Hyphal invasion relative to fluconazole (in words) ([10]; 100 nM and 500 nM in drinking water versus 4 µg/mL fluconazole, day 5): slightly less prevalent
Epithelial / hyphal invasion of the tongue (in words) ([10]; mouse, in vivo, listed as 12mer): at least as effective as the full length EntV; also recorded: most reduced
Survival of mice at end of experiment (in words) [11]: about half the animals were still alive
Reduction of catheter fungal burden [12]: 1.5 logs
Solubility ([3]; Supplementary Table 2, printed as '10 µM +'): 10 µM +
Protection of C. elegans against C. albicans infection (in words) [4]: as effective in protecting against C. albicans infection in the worm model and inhibiting surface adhesion as full-length EntV
Median survival ([4]; Fig 3A, trial 1): 10.5 days
Median survival ([4]; Fig 3A, trial 2): 10 days
Median survival ([4]; Fig 3A, trial 3): 9.5 days
Median survival ([4]; Fig 3E, trial 1): 11 days
Median survival ([4]; Fig 3E, trial 2): 10 days
Median survival ([4]; Fig 3E, trial 3): 10 days
C. albicans CFUs before versus after incubation with peptide (in words) [13]: no significant difference

Source: paper PMC9562342, “Structural and functional analysis of EntV reveals a 12 amino acid fragment protective against fungal infections” (Nature Communications, 2022)
